Measurements published in patent publication US20120138290A1, “METHODS TO STIMULATE BIOGENIC METHANE PRODUCTION FROM HYDROCARBON-BEARING FORMATIONS” (SYNTHETIC GENOMICS, INC., priority 2010, published 2012).
“And” between values parts separate entries of the source, which are not always exact repeats. Equal values may be shown once.

System: functional microbial subcommunity (inoculum 2L-245 from upflow reactor)
Assay: Stimulation of methane production: batch cultures with additive/stimulant, with or without coal, headspace methane by gas chromatography
Type: cell-based
Procedure: The availability of an inoculum of a functional microbial subcommunity capable of producing methane from coal in vitro prompted laboratory experiments where various stimulants were tested for their effect on methane production. […] The experiments were conducted at three different levels of additives (0.5×, 1× and 2×): additives (stimulants) were added in the following three concentrations. […] DMY media: DM media composition in milli-Q water is made as described above with the addition of 0.5 g/L yeast extract. DMSC media: DM media in milli-Q water is made as described above with the addition of 100 g/L sterile, anaerobic, sub-bituminous coal from the San Juan Basin. DMSCY media: DM media in milli-Q water is made as described above with the addition of 100 g/L sterile, anaerobic, sub-bituminous coal from the San Juan Basin and 0.5 g/L yeast extract. The coal used in these experiments originated from the San Juan Basin (BHP Billiton, Tex.). […] Each stimulant was tested in the presence or absence of coal. The experiments were conducted at three different concentrations of additives (0.5× (low), 1× (medium), and 2× (high)) as described above. Each sample type was conducted in 4 replicates. […] Control sample types were media alone, media plus coal, media plus yeast extract and media plus coal and yeast extract. At each time point, headspace measurements were taken using gas chromatography (microGC […], Agilent Technologies, Inc.). […] Each experiment was performed in quadruplicate. Methane at time 0 was assumed to be 0%.

[1] = DMSCY (coal), 5.0 μM MnCl2, week 3
[2] = DMSCY (coal), 5.0 μM MnCl2, week 5
[3] = DMSCY (coal), 10 μM MnCl2, week 1
[4] = DMSCY (coal), 10 μM MnCl2, week 3
[5] = DMSCY (coal), 10 μM MnCl2, week 5
[6] = DMY (no coal), 5.0 μM MnCl2, week 1
[7] = DMY (no coal), 5.0 μM MnCl2, week 3
[8] = DMY (no coal), 5.0 μM MnCl2, week 5
[9] = DMY (no coal), 10 μM MnCl2, week 1
[10] = DMY (no coal), 10 μM MnCl2, week 3
[11] = DMY (no coal), 10 μM MnCl2, week 5
[12] = DMSCY (coal), 5 mM NH4Cl, week 1
[13] = DMSCY (coal), 5 mM NH4Cl, week 3
[14] = DMSCY (coal), 5 mM NH4Cl, week 5
[15] = DMSCY (coal), 10 mM NH4Cl, week 1
[16] = DMSCY (coal), 10 mM NH4Cl, week 3
[17] = DMSCY (coal), 10 mM NH4Cl, week 5
[18] = DMSCY (coal), 20 mM NH4Cl, week 1
[19] = DMSCY (coal), 20 mM NH4Cl, week 5
[20] = DMY (no coal), 5 mM NH4Cl, week 1
[21] = DMY (no coal), 5 mM NH4Cl, week 3
[22] = DMY (no coal), 5 mM NH4Cl, week 5
[23] = DMY (no coal), 10 mM NH4Cl, week 1
[24] = DMY (no coal), 20 mM NH4Cl, week 1
[25] = DMY (no coal), 20 mM NH4Cl, week 3
[26] = DMY (no coal), 20 mM NH4Cl, week 5
[27] = DMSCY (coal), 2.0 mM KCl, week 1
[28] = DMSCY (coal), 2.0 mM KCl, week 3
[29] = DMSCY (coal), 2.0 mM KCl, week 5
[30] = DMSCY (coal), 4.0 mM KCl, week 1
[31] = DMSCY (coal), 4.0 mM KCl, week 3
[32] = DMSCY (coal), 4.0 mM KCl, week 5
[33] = DMSCY (coal), 8.0 mM KCl, week 1
[34] = DMSCY (coal), 8.0 mM KCl, week 3
[35] = DMSCY (coal), 8.0 mM KCl, week 5
[36] = DMY (no coal), 2.0 mM KCl, week 1
[37] = DMY (no coal), 2.0 mM KCl, week 3
[38] = DMY (no coal), 2.0 mM KCl, week 5
[39] = DMY (no coal), 4.0 mM KCl, week 1
[40] = DMY (no coal), 4.0 mM KCl, week 3
[41] = DMY (no coal), 4.0 mM KCl, week 5
[42] = DMY (no coal), 8.0 mM KCl, week 1
[43] = DMY (no coal), 8.0 mM KCl, week 3
[44] = DMY (no coal), 8.0 mM KCl, week 5

manganese chloride [MnCl2]
methane production (Average) (DMSCY (coal), 5.0 μM MnCl2, week 1): 0.44 | methane production (Average) [1]: 1.56 | methane production (RepA-Rep D) [1]: 1.51 and 1.55 and 1.53 and 1.64 | methane production (Average) [2]: 1.82 | methane production (RepA-Rep D) [2]: 1.94 and 1.81 and 1.70 and 1.85 | methane production (Average) [3]: 0.42 | methane production (RepA-Rep D) [3]: 0.44 and 0.41 and 0.43 | methane production (Average) [4]: 1.46 | methane production (RepA-Rep D) [4]: 1.45 and 1.49 and 1.43 and 1.48 | methane production (Average) [5]: 1.72 | methane production (RepA-Rep D) [5]: 1.63 and 1.82 and 1.71 and 1.70 | methane production (Average) [6]: 0.34 | methane production (RepA-Rep D) [6]: 0.34 and 0.33 and 0.36 | methane production (Average) [7]: 0.92 | methane production (RepA-Rep D) [7]: 0.92 and 0.90 and 0.94 | methane production (Average) [8]: 0.87 | methane production (RepA-Rep D) [8]: 0.89 and 0.86 and 0.85 and 0.88 | methane production (Average) [9]: 0.36 | methane production (RepA-Rep D) [9]: 0.39 and 0.38 and 0.35 | methane production (Average) [10]: 1.02 | methane production (RepA-Rep D) [10]: 1.00 and 1.05 and 1.04 and 1.01 | methane production (Average) [11]: 0.97 | methane production (RepA-Rep D) [11]: 0.89 and 1.03 and 0.96 and 1.01

Cl.N [NH4Cl, ammonium chloride]
methane production (Average) [12]: 0.31 | methane production (RepA-Rep D) [12]: 0.35 and 0.27 and 0.31 and 0.30 | methane production (Average) [13]: 1.11 | methane production (RepA-Rep D) [13]: 1.24 and 1.03 and 1.13 | methane production (Average) [14]: 1.50 | methane production (RepA-Rep D) [14]: 1.67 and 1.41 and 1.48 and 1.43 | methane production (Average) [15]: 0.25 | methane production (RepA-Rep D) [15]: 0.25 and 0.22 and 0.28 | methane production (Average) [16]: 1.30 | methane production (RepA-Rep D) [16]: 1.22 and 1.43 and 1.41 and 1.14 | methane production (Average) [17]: 2.22 | methane production (RepA-Rep D) [17]: 1.98 and 2.70 and 2.67 and 1.54 | methane production (Average) [18]: 0.22 | methane production (RepA-Rep D) [18]: 0.24 and 0.22 and 0.21 | methane production (Average) (DMSCY (coal), 20 mM NH4Cl, week 3): 1.18 | methane production (Average) [19]: 1.46 | methane production (RepA-Rep D) [19]: 1.63 and 1.48 and 1.37 and 1.36 | methane production (Average) [20]: 0.26 | methane production (RepA-Rep D) [20]: 0.26 and 0.27 | methane production (Average) [21]: 0.71 | methane production (RepA-Rep D) [21]: 0.74 and 0.68 and 0.67 | methane production (Average) [22]: 0.66 | methane production (RepA-Rep D) [22]: 0.69 and 0.65 and 0.62 | methane production (Average) [23]: 0.20 | methane production (RepA-Rep D) [23]: 0.22 and 0.21 and 0.15 | methane production (Average) (DMY (no coal), 10 mM NH4Cl, week 3): 0.57 | methane production (Average) (DMY (no coal), 10 mM NH4Cl, week 5): 0.58 | methane production (Average) [24]: 0.22 | methane production (RepA-Rep D) [24]: 0.23 and 0.22 and 0.21 | methane production (Average) [25]: 0.77 | methane production (RepA-Rep D) [25]: 0.80 and 0.78 and 0.76 | methane production (Average) [26]: 0.78 | methane production (RepA-Rep D) [26]: 0.80 and 0.79 and 0.76 and 0.77 | effect on the production of methane (intermediate concentration of the stimulant (FIGS. 1A, 1B, 2A)): statistically significant positive effect | dependence of methane production on coal (with or without coal): only observed in presence of coal

[Cl-].[K+] [KCl, potassium chloride]
methane production (Average) [27]: 0.34 | methane production (RepA-Rep D) [27]: 0.35 and 0.30 and 0.32 and 0.39 | methane production (Average) [28]: 1.14 | methane production (RepA-Rep D) [28]: 1.12 and 1.25 and 1.04 and 1.16 | methane production (Average) [29]: 1.39 | methane production (RepA-Rep D) [29]: 1.32 and 1.49 and 1.30 and 1.47 | methane production (Average) [30]: 0.4 | methane production (RepA-Rep D) [30]: 0.44 and 0.43 and 0.46 | methane production (Average) [31]: 1.50 | methane production (RepA-Rep D) [31]: 1.35 and 1.46 and 1.60 and 1.57 | methane production (Average) [32]: 1.69 | methane production (RepA-Rep D) [32]: 1.59 and 1.87 and 1.70 | methane production (Average) [33]: 0.3936 | methane production (RepA-Rep D) [33]: 0.3871 and 0.3364 and 0.4219 and 0.429 | methane production (Average) [34]: 1.327 | methane production (RepA-Rep D) [34]: 1.346 and 1.301 and 1.36 and 1.304 | methane production (Average) [35]: 1.562 | methane production (RepA-Rep D) [35]: 1.564 and 1.478 and 1.557 and 1.649 | methane production (Average) [36]: 0.30 | methane production (RepA-Rep D) [36]: 0.29 and 0.30 and 0.32 | methane production (Average) [37]: 0.81 | methane production (RepA-Rep D) [37]: 0.99 and 0.79 and 0.78 and 0.70 | methane production (Average) [38]: 0.77 | methane production (RepA-Rep D) [38]: 0.78 and 0.75 and 0.79 | methane production (Average) [39]: 0.23 | methane production (RepA-Rep D) [39]: 0.23 and 0.22 and 0.24 | methane production (Average) [40]: 0.26 | methane production (RepA-Rep D) [40]: 0.24 and 0.26 and 0.29 | methane production (Average) [41]: 0.29 | methane production (RepA-Rep D) [41]: 0.23 and 0.26 and 0.40 | methane production (Average) [42]: 0.2015 | methane production (RepA-Rep D) [42]: 0.2005 and 0.2037 and 0.195 and 0.2068 | methane production (Average) [43]: 0.2178 | methane production (RepA-Rep D) [43]: 0.2211 and 0.2119 and 0.2206 and 0.2177 | methane production (Average) [44]: 0.2151 | methane production (RepA-Rep D) [44]: 0.2177 and 0.2082 and 0.2231 and 0.2112 | effect on methanogenesis (absence of coal (DMY), >2 mM KCl): greatly decreased methanogenesis | trend in methane production (week 5, KCl-containing samples): decreasing trend
